The structures appear in SMILES notation.

The inhibition is the percentage by which the read-out fell short of the control.

This test concerns the target T1, α-synuclein (Homo sapiens, UniProt P37840).
T1 construct: purchased Sino Biological
Briefly: Detection of the ability of compounds to inhibit α-synuclein self-aggregation by HPLC. Format: biochemical. The conditions noted are these: test compound 200 μg/mL, α-synuclein 250 μg/ml, 37° C., 9 days; HPLC peak area of α-synuclein multimers vs model group; read-out: inhibition rate (%). The procedure: The test compound (for poorly soluble compounds, dissolve with an appropriate amount of DMSO first) and fresh α-synuclein monomers (purchased from Sino Biological) were added to pure water to a final protein concentration of 250 μg/ml, and the concentration of the test compound was 200 μg/mL, followed by incubation at 37° C. for 9 days. The peak area of α-synuclein multimers after incubation was detected by HPLC and the inhibition rate was calculated. […] Inhibition rate=(peak area of model group−peak area of example group)/peak area of model group×100%.
In the case of `CCCCC(Cc1c[nH]c2ccccc12)NC(=O)c1nc2ccc(N3CCN(C)CC3)cc2s1` (stereo not shown) [Example 4, N-(1-(1H-indol-3-yl)hexane-2-yl)-6-(4-methylpiperazin-1-yl) benzo[d]thiazole-2-carboxamide], the inhibition at 200 µg/mL was 90.6%. Turning to `CCCCC(Cc1c[nH]c2ccccc12)NC(=O)c1cc2ccc(N3CCC(C)(O)CC3)cc2s1` (stereo not shown) [Example 48, N-(1-(1H-indol-3-yl)hexane-2-yl)-6-(4-hydroxy-4-methylpiperidin-1-yl) benzo[b]-thiophene-2-carboxamide], the inhibition at 200 µg/mL came out at 96.5%. Regarding `CC(C)=CCC(Cc1c[nH]c2ccccc12)NC(=O)c1cc2ccc(N3CCN(C)CC3)cc2s1` (stereo not shown) [Example 32, N-(1-(1H-indol-3-yl)-5-methyl-4-hexene-2-yl)-6-(4-methylpiperazin-1-yl) benzo[b]thiophene-2-carboxamide], the inhibition at 200 µg/mL was determined as 86.1%. Under `CCCCC(Cc1c[nH]c2ccccc12)NC(=O)c1cc2ccc(N3CCC4(CC3)CN(C)C4)cc2s1` (stereo not shown) [Example 22] stands 83.8%; under `CCCCC(Cc1c[nH]c2ccc(F)cc12)NC(=O)c1cc2ccc(N3CCN(C)CC3)cc2s1` (stereo not shown) [Example 26, N-(1-(5-fluoro-1H-indole-3-yl)hexane-2-yl)-6-(4-methylpiperazine-1-yl) benzo [b] thiophene-2-carboxamide], 93.3%; under `CCCCC(Cc1c[nH]c2ccccc12)NC(=O)c1cc2ccc(N3CCC(C)(O)C3)cc2s1` (stereo not shown) [Example 51, N-(1-(1H-indol-3-yl)hexane-2-yl)-6-(3-hydroxy-3-methylpyrrolidin-1-yl) benzo[b]-thiophene-2-carboxamide], 90.3%. For the compound `CCCCC(Cc1c[nH]c2ccccc12)NC(=O)c1cc2cnc(N3CCC(C)CC3)cc2s1` (stereo not shown) [Example 18, N-(1-(1H-indol-3-yl)hexane-2-yl)-6-(4-methylpiperidin-1-yl) thieno[3,2-c]pyridine-2-carboxamide], the inhibition at 200 µg/mL stood at 76.9%. Take `CCCCC(Cc1c[nH]c2ccccc12)NC(=O)c1cc2ccc(N3CCN(C)CC3=O)cc2s1` (stereo not shown) [Example 47, N-[1-(1H-indol-3-yl)hexane-2-yl]-6-(4-methyl-2-oxypiperazin-1-yl)-1-benzothiophene-2-carboxamide]: the inhibition at 200 µg/mL was 73.5%. The result for `CCCCC(Cc1c[nH]c2ccccc12)NC(=O)c1cc2ccc(N3CCC(F)(F)CC3)cc2s1` (stereo not shown) [Example 15, N-(1-(1H-indol-3-yl)hexane-2-yl)-6-(4,4-difluoropiperidin-1-yl) benzo[b]thiophene-2-carboxamide] reads 96.2%. Under `CCOCCC(Cc1c[nH]c2ccccc12)NC(=O)c1cc2ccc(N3CCN(C)CC3)cc2s1` (stereo not shown) [Example 41, N-(4-ethoxy-1-(1H-indol-3-yl)butane-2-yl)-6-(4-methylpiperazin-1-yl) benzol[b]-thiophene-2-carboxamide] stands 82.5%; under `CCOCC(Cc1c[nH]c2ccccc12)NC(=O)c1cc2ccc(N3CCN(C)CC3)cc2s1` (stereo not shown) [Example 39, N-(1-ethoxy-3-(1H-indol-3-yl)propane-2-yl)-6-(4-methylpiperazin-1-yl) benzo[b]-thiophene-2-carboxamide], 92.6%; under `CCCCC(Cc1c[nH]c2ccccc12)NC(=O)c1cc2ccc(N3CC4(C3)CC(C)(O)C4)cc2s1` (stereo not shown) [Example 50, N-(1-(1H-indol-3-yl)hexane-2-yl)-6-(6-hydroxy-6-methyl-2-azaspiro [3.3]heptane-2-yl) benzo[b]thiophene-2-carboxamide], 95.7%. As for `CCCCC(Cc1c[nH]c2ccccc12)NC(=O)c1cc2cc(N3CCN(C)CC3)ccc2s1` (stereo not shown) [Example 7, N-(1-(1H-indol-3-yl)hexane-2-yl)-5-(4-methylpiperazine-1-yl) benzo[b]thiophene-2-carboxamide], the inhibition at 200 µg/mL worked out at 71.5%.

In the case of `CN(C)CCC(Cc1c[nH]c2ccccc12)NC(=O)c1cc2ccc(N3CCN(C)CC3)cc2s1` (stereo not shown) [Example 38], the inhibition at 200 µg/mL is 78.3%. For the compound `CCCCC(Cc1c[nH]c2ccccc12)NC(=O)c1cc2ccc(N3CCN(C)CC3)cc2[nH]1` (stereo not shown) [Example 28, N-(1-(1H-indole-3-yl)hexane-2-yl)-6-(4-methylpiperazine-1-yl)-1H-indole-2-carboxamide], the inhibition at 200 µg/mL amounted to 73%.

With `CC/C=C/C(Cc1c[nH]c2ccccc12)NC(=O)c1cc2ccc(N3CCN(C)CC3)cc2s1` (stereo not shown) [Example 37, (E)-N-(1-(1H-indol-3-yl)-3-hexene-2-yl)-6-(4-methylpiperazin-1-yl) benzo-[b]thiophene-2-carboxamide], the inhibition at 200 µg/mL is 86.7%. Regarding `CCCCC(Cc1c[nH]c2ccccc12)NC(=O)c1cc2ccc(N3CC4(CN(C)C4)C3)cc2s1` (stereo not shown) [Example 25, N-(1-(1H-indol-3-yl)hexane-2-yl)-6-(6-methyl-2,6-diazaspiro [3.3]heptane-2-yl) benzo[b]thiophene-2-carboxamide], the inhibition at 200 µg/mL worked out at 90.8%. With `CCCCC(Cc1c[nH]c2ccccc12)NC(=O)c1cc2ccc(N3CCN(C)CC3)cc2n1C` (stereo not shown) [Example 36, N-[1-(1H-indol-3-yl)hexyl-2-yl]-1-methyl-6-(4-methylpiperazin-1-yl)-1H-indole-2-carboxamide], the inhibition at 200 µg/mL turned out to be 85.3%. `CCCCC(Cc1c[nH]c2ccccc12)NC(=O)c1cc2c(C)nc(N3CCN(C)CC3)cc2s1` (stereo not shown) [Example 9, N-(1-(1H-indol-3-yl)hexane-2-yl)-4-methyl-6-(4-methylpiperazin-1-yl) thieno[3,2-c]pyridine-2-carboxamide]: the inhibition at 200 µg/mL came to 78.1%. With `CCCCC(Cc1c[nH]c2ccccc12)NC(=O)c1cc2ccc(N3CCOCC3)cc2s1` (stereo not shown) [Example 23, N-(1-(1H-indol-3-yl)hexane-2-yl)-6-morpholinobenzo[b]thiophene-2-carboxamide], the inhibition at 200 µg/mL came out at 89.7%. Regarding `CCCCC(Cc1c[nH]c2ccccc12)NC(=O)c1cc2ccc(N3CCN(C)CC3)c(F)c2s1` (stereo not shown) [Example 17, 7-Fluoro-N-[1-(1H-indol-3-yl)hexyl-2-yl]-6-(4-methylpiperazin-1-yl)-1-benzothiophene-2-carboxamide], the inhibition at 200 µg/mL was determined as 98.2%. In the case of `CCCCC(Cc1c[nH]c2ccccc12)NC(=O)c1cc2ccc(N3CCC(C)CC3)cc2s1` (stereo not shown) [Example 12, N-(1-(1H-indol-3-yl)hexane-2-yl)-6-(4-methylpiperidin-1-yl) benzo[b]thiophene-2-carboxamide], the inhibition at 200 µg/mL was 86.9%.

As to `CCCCC(Cc1c[nH]c2ccccc12)NC(=O)c1cc2ccc(N3CCN(S(=O)(=O)C4CC4)CC3)cc2s1` (stereo not shown) [Example 44, 6-[4-(Cyclopropanesulfonyl)piperazine-1-yl]-N-[1-(1H-indol-3-yl)hexane-2-yl]-1-benzothiophene-2-carboxamide], the inhibition at 200 µg/mL was found to be 89.7%. As to `CCCCC(Cc1c[nH]c2ccc(C)cc12)NC(=O)c1cc2ccc(N3CCN(C)CC3)cc2s1` (stereo not shown) [Example 30, N-(1-(5-methyl-1H-indole-3-yl)hexane-2-yl)-6-(4-methylpiperazine-1-yl) benzo[b]thiophene-2-carboxamide], the inhibition at 200 µg/mL amounted to 71.4%. For the compound `CCCCC(Cc1c[nH]c2ccccc12)NC(=O)c1cc2ccc(N3CCC(N(C)C)CC3)cc2s1` (stereo not shown) [Example 24, N-(1-(1H-indol-3-yl)hexane-2-yl)-6-(4-(dimethylamino)piperidin-1-yl) benzo[b]thiophene-2-carboxamide], the inhibition at 200 µg/mL was 89.7%.

(Values after patent US20250074902A1, “FUSED BICYCLIC HETEROARYL AMIDE COMPOUND AS PROTEIN AGGREGATION INHIBITOR” (SHANGHAI JINGXIN BIOMEDICAL CO., LTD., priority 2021, published 2025).)
